Measured values as given in ChEMBL document CHEMBL1145560, “Use of receptor chimeras to identify small molecules with high affinity for the dynorphin A binding domain of the kappa opioid receptor” (Bioorg Med Chem Lett, 2008).

Experiments:
[1] = target: T1, Kappa-type opioid receptor (Homo sapiens, UniProt P41145); experiment: Agonist activity at human kappa opioid receptor transfected in CHO cells by [35S]GTP-gamma-S binding assay; format: functional, cell-based
[2] = target: Delta-type opioid receptor (Homo sapiens, UniProt P41143); experiment: Displacement of [3H]diprenorphine from human delta opioid receptor expressed in CHO-K1 cells; format: cell-based
Sequence of Delta-type opioid receptor (P41143 whole entry): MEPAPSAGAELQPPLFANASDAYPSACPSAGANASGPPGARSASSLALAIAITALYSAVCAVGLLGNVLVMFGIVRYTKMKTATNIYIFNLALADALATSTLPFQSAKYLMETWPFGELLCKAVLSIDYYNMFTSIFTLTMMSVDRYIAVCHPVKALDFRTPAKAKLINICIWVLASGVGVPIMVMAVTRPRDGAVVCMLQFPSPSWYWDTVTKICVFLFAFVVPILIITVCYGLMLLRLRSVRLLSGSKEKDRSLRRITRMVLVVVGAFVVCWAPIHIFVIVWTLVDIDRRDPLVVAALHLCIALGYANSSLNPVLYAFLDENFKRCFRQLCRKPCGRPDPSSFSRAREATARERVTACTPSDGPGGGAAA

Mu-type opioid receptor = Mu-type opioid receptor (Homo sapiens, UniProt P35372); experiment: Displacement of [3H]diprenorphine from human mu opioid receptor expressed in CHO-K1 cells; format: cell-based
Sequence of Mu-type opioid receptor (P35372 whole entry): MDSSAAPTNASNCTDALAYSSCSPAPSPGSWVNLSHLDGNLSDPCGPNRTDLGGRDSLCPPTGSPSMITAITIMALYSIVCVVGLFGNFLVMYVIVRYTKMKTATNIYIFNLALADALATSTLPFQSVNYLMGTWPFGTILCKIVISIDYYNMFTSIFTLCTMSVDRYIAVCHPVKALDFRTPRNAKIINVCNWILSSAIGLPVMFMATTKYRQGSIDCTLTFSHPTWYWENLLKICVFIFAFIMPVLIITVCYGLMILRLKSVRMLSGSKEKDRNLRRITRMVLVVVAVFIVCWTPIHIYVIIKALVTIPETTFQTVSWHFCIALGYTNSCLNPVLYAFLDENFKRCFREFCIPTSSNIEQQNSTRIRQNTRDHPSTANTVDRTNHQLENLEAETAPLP

[3] = target: T1, Kappa-type opioid receptor; experiment: Displacement of [3H]diprenorphine from human kappa opioid receptor expressed in CHO-K1 cells; format: cell-based
[4] = Displacement of [3H]diprenorphine from human kappa/mu opioid chimera 3 receptor
[5] = Displacement of [3H]diprenorphine from human kappa/mu opioid chimera 4 receptor

T1 sequence (P41145 whole entry): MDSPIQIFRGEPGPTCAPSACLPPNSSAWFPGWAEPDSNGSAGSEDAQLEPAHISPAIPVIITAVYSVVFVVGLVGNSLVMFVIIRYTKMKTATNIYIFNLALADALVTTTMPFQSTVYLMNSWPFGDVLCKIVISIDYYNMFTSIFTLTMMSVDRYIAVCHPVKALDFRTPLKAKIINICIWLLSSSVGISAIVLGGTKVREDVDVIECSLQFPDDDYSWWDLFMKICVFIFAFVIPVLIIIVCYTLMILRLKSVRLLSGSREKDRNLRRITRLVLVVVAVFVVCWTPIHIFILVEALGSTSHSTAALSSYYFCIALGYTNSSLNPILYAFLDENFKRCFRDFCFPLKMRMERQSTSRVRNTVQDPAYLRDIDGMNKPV

Compound	EC50 [1]	Ki [2]	Ki (Mu-type opioid receptor)	Ki [3]	Ki [4]	Ki [5]
COc1cc(CC(=O)N(C)[C@H](CN2CC[C@H](O)C2)c2ccccc2)c(S(=O)(=O)N2CCOCC2)cc1OC	0.34 nM	1.8 nM	9 nM	1.4 nM	–	–
COc1cc(CC(=O)N(C)[C@H](CN2CCCC2)c2ccccc2)c(S(=O)(=O)N2CCOCC2)cc1OC	0.17 nM	9.4 nM	15 nM	0.55 nM	1.3 nM	2.2 nM
CN(C(=O)Cc1cc2c(cc1S(=O)(=O)N(C)C)OCO2)[C@H](CN1CC[C@H](O)C1)c1ccccc1	0.11 nM	6.2 nM	34 nM	0.54 nM	4.5 nM	0.5 nM
COc1cc(CC(=O)N(C)[C@H](CN2CCCC2)c2ccccc2)c(S(=O)(=O)N2CCN(C)CC2)cc1OC	0.39 nM	23 nM	52 nM	–	4.8 nM	6.8 nM
CC[C@H](C)[C@H](NC(=O)[C@H](CCCNC(=N)N)NC(=O)[C@H](CCCNC(=N)N)NC(=O)[C@H](CC(C)C)NC(=O)[C@H](Cc1ccccc1)NC(=O)CNC(=O)CNC(=O)[C@@H](N)Cc1ccc(O)cc1)C(=O)N[C@@H](CCCNC(=N)N)C(=O)N1CCC[C@H]1C(=O)N[C@@H](CCCCN)C(=O)N[C@@H](CC(C)C)C(=O)N[C@@H](CCCCN)C(=O)N[C@@H](Cc1c[nH]c2ccccc12)C(=O)N[C@@H](CC(=O)O)C(=O)N[C@@H](CC(N)=O)C(=O)N[C@@H](CCC(N)=O)C(=O)O [DYNORPHIN A (1-17)]	–	–	–	–	0.31 nM	0.18 nM
COc1cc(CC(=O)N(C)[C@H](CN2CCCC2)c2ccccc2)c(S(=O)(=O)N(C)Cc2ccccc2)cc1OC	0.54 nM	1.5 nM	21 nM	0.68 nM	3.3 nM	4.8 nM
COc1cc(CC(=O)N(C)[C@H](CN2CC[C@H](O)C2)c2ccccc2)c(S(=O)(=O)N2CCCC2)cc1OC	0.12 nM	0.85 nM	5.9 nM	1.1 nM	38 nM	8.3 nM
CN(C(=O)Cc1cc2c(cc1S(=O)(=O)N(C)C)OCO2)[C@H](CN1CCCC1)c1ccccc1	0.1 nM	110 nM	47 nM	0.22 nM	5.2 nM	0.71 nM
CN(C(=O)Cc1cc2c(cc1S(=O)(=O)N(C)Cc1ccccc1)OCO2)[C@H](CN1CCCC1)c1ccccc1	0.12 nM	3.4 nM	6.5 nM	0.19 nM	5.5 nM	1.7 nM
COc1cc(CC(=O)N(C)[C@H](CN2CCCC2)c2ccccc2)c(S(=O)(=O)N(C)C)cc1OC	0.26 nM	56 nM	42 nM	0.5 nM	3.2 nM	2.5 nM
COc1cc(CC(=O)N(C)[C@H](CN2CC[C@H](O)C2)c2ccccc2)c(S(=O)(=O)N2CCN(C)CC2)cc1OC	0.71 nM	4.4 nM	27 nM	3.8 nM	–	–
COc1cc(CC(=O)N(C)[C@H](CN2CC[C@H](O)C2)c2ccccc2)c(S(=O)(=O)N(C)C)cc1OC	0.24 nM	9.3 nM	25 nM	1.6 nM	6.4 nM	2.8 nM
COc1cc(CC(=O)N(C)[C@H](CN2CCCC2)c2ccccc2)c(S(=O)(=O)N2CCCC2)cc1OC	0.11 nM	5.4 nM	14 nM	0.31 nM	1.5 nM	1.2 nM
